Experimental data from US4032635A, “Pharmaceutical method for the therapy of immune diseases” (Zaidan Hojin Biseibutsu Kagaku Kenkyu Kai, priority 1975, dated 1977).
Read-outs that look alike come from different tables or passages of the source.

How the values were obtained:
[1] = tested on: experimental allergic encephalomyelitis (EAE); details: cited from earlier work
[2] = tested on: nucleic acid and/or protein synthesis; details: cited from earlier work
[3] = tested on: autoimmune diseases, some infection allergies and dermatological contact allergies, transplantation immunological responses; details: in vivo; cited from earlier work
[4] = tested on: humoral and cell-mediated immunities; details: cited from earlier work
[5] = tested on: Delayed-Type Hypersensitivity (DTH) to sheep red blood cells (SRBC); assay: Suppression of delayed-type hypersensitivity (SRBC footpad swelling); type: in vivo, mouse; details: for inhibition in vivo at 1 mg: Erythrocyte, 1 mg./mouse i.p.; for suppression of DTH reaction: anti-inflammatory drugs and protease-inhibitors, 1 mg./mouse
Procedure: The compounds of Formula (I) show suppression of various delayed-type hypersensitivity. In reference to the method by Lagrange [J. Exp. Med. 139, 528 (1974)], 10^8 sheep red blood cells (SRBC) without adjuvant were subcutaneously injected into the mouse hind footpad to immunize the animal. Four days later the animals were challenged by subcutaneous injection of 10^8 SRBC into another footpad. DTH response was measured as the increase in the thickness of footpad 24 hours after the injection of SRBC.
Varying doses of Compound-1 were administered orally or intraperitoneally either at the time of immunization (day 0) or challenge (day 4).
In FIG. 1 the ordinate indicates the swelling (× 0.1 mm.) of mice footpads on day 5 and the abscissa indicates the dose of Compound-1 per mouse administered by the oral (right) and intraperitoneal (left) routes. Solid line curve indicates the relationship when Compound-1 was administered on day 0 and the dotted line curve indicates the relationship when given on day 4.
The compounds were administered intraperitoneally in a dose 1 mg./mouse at the time of immunization (day 0) or challenge (day 4). Table 1 includes the results of humoral antibody response described later.

[6] = tested on: primary antibody formation to sheep red blood cells (SRBC), spleen cells; assay: Suppression of primary antibody formation (plaque forming cells, Jerne's method); type: in vivo, mice (ddY-strain); details: for inhibition in vivo at 1 mg: Erythrocyte, ip, 96 h, 1 mg./mouse i.p., read-out: Suppression, Plaque Forming Cells (suppression rate of primary antibody formation)
Procedure: 10^8 sheep red blood cells (SRBC) were injected intravenously into ddY-strain mice to immunize the animals, when the compounds of Formula (I) were administered intraperitoneally.
Each compound was administered intraperitoneally in the dosage of 1 mg./mouse.

[7] = tested on: experimental allergic encephalomyelitis (EAE); assay: Suppression of experimental allergic encephalomyelitis (EAE); type: in vivo, guinea pigs; details: for recurrence of paralysis after discontinuation: after discontinuation of the drug
Description: By injecting basic protein (B.P.) the extract from central nervous tissue, together with Freund's complete adjuvant, a typical EAE symptom develops. Guinea pigs show drastic reduction of body weight and development of paralysis about ten days after injection with BP and they finally die within 17 days after the injection of BP.

[8] = tested on: contact allergy induced by dinitrochlorobenzene (DNCB); assay: Suppression of contact allergy induced by dinitrochlorobenzene (DNCB); type: in vivo, guinea pigs; set-up: key to Skin Lesion Score, Animal No. 1 / Skin Lesion Score, Animal No. 2 / Skin Lesion Score, Animal No. 3: +: slight erythema; ++: marked erythema and slight swelling; +++: marked induration and swelling; details: 100 mg./kg. i.p. at 0.5, 24 and 48 hours before challenge; for Skin Lesion Score, Animal No. 1 / Skin Lesion Score, Animal No. 2 / Skin Lesion Score, Animal No. 3: control None +++
Procedure: For example, approximately 0.1 ml. of a 10% solution of DNCB in acetone was administered percutaneously on the ear. Fourteen days later animals were skin tested on a shaved flank by topical spotting (about 0.05 ml.) of a 0.1% solution of DNCB in acetone. Skin lesions were evaluated and scored 24 hours later as follows:
Guinea pigs readily develop contact hypersensitivities of the delayed-type by simple topical application of DNCB.

[9] = tested on: systemic anaphylactic shock; assay: Suppression of systemic anaphylactic shock (egg albumin); type: in vivo, mice; details: for time of death after induction, Animal No. 1: control 16; for time of death after induction, Animal No. 2: control 25; for time of death after induction, Animal No. 3: control 27; for time of death after induction, Mouse No. 1: control 15
Procedure: The mice were immunized by a subcutaneous injection of a mixture of 0.1 ml. (100 mcg.) egg albumin and 0.1 ml. Freund's complete adjuvant, and used for experiment four months thereafter. In control mice sensitized in the above manner, the shock symptom emerged after induction by intravenous injection of 100 mcg. egg albumin and most of the animals died from shock within about 40 minutes.
Table 3A show the suppression effect with Compound -1 when given as a single dose (0.25 or 1.0 mg./mouse, i.p.) at the time of sensitization. […] In the animals receiving the test drug, the time until death after induction was somewhat delayed and most of the animals survived the shock.

[10] = tested on: passive cutaneous anaphylaxis (PCA); assay: Suppression of passive cutaneous anaphylaxis (PCA); type: in vivo, guinea pigs; details: dilution giving a 10 mm. diameter blue zone; for Max. Dilution of Antiserum, i.p.: i.p. 50 mg./kg.; for Max. Dilution of Antiserum, Oral: oral 100 mg./kg., control 1060
Procedure: The compounds of Formula (I) are active in suppressing passive cutaneous anaphylaxis (PCA) in guinea pigs. Guinea pigs received intradarmally serial dilutions of antiserum (0.1 ml.), which was obtained from guinea pigs immunized with a mixture of egg albumin and Freund's complete adjuvant. At the time of sensitization with antiserum, the compound of Formula (I) was administered either orally (100 mg./kg.) or intraperitoneally (50 mg./kg.).
Four hours later the animals were challenged by intravenous injection of a mixture of 5 mg. egg albumin and Evans blue dye. The reaction was measured 30 minutes later by the blue zone which emerged at the point of antiserum injection.

[11] = tested on: primary antibody formation in spleen cell culture; assay: Antibody formation in spleen cell culture in vitro (hemolytic plaque assay); type: cell-based, mice
Procedure: Additional experiment to evaluate the effect of Compound-1 on primary antibody formation was made by spleen cell culture in vitro. According to the method described by Mishell and Dutton [J. Exp. Med., 126, 423 (1967)], dissociated spleen cells prepared from normal mice spleens were cultured with SRBC as antigen and at initiation of cultures Compound-1 was added, and then four days later, antibody formation in cultures was determined by Jerne's hemolytic plaque assay.

[12] = Acute toxicity, intraperitoneal; details: mouse, in vivo, ip, mice, read-out: LD50 (approximate)
Procedure: Acute toxicological studies were carried out on mice by intraperitoneal administration of the compounds of Formula (I). The approximate LD50 values for representative compounds are given as follows: […]

rats = assay: One-month daily administration; type: in vivo; details: oral or i.p., daily 12.5, 50 or 200 mg./kg.
Procedure: Compound-1 and Compound-2 were given orally or intraperitoneally to rats in daily doses of 12.5, 50 or 200 mg./kg., respectively, for one month.

red blood cells = assay: Heat-induced hemolysis of red blood cells / cell membrane stabilization; type: cell-based; details: Compound-1 compared with mefenamic acid or indomethacin
[13] = tested on: carrageenin-induced edema; details: 1 mg./mouse; cited from earlier work
[14] = 96 h, at challenge (day 4), read-out: Suppression, Delayed-Type Hypersensitivity, Administered at Induction (suppression rate)
[15] = ip, 0 h, at immunization (day 0), read-out: Suppression, Delayed-Type Hypersensitivity, Administered at Immunization (suppression rate)
[16] = 10 mg. i.p. once daily, days 3 to 21 after antigen, five animals
[17] = 0.25 mg./mouse i.p. at the time of sensitization
[18] = 1 mg./mouse i.p. at 0.5 and 5 hours before challenge
[19] = 1.0 mg./mouse i.p. at the time of sensitization

## Sc1ncnc2nc[nH]c12 [6-mercaptopurine]
[1]; after discontinuation and following a latent period
  EAE after discontinuation of the drug (known agents): the animals often develop paralytic EAE
[1]; at such high doses as would cause toxicity
  suppression of development of EAE (known agents): can suppress the development of EAE
[2]
  effect on nucleic acid and/or protein synthesis: disrupt nucleic acid and/or protein synthesis
[3]
  effectiveness in therapy of autoimmune diseases, allergies, transplantation responses: effective in the therapy of autoimmune diseases, some infection allergies and dermatological contact allergies
[4]
  dose at which effective / cytotoxicity: effective in general only at near-lethal doses owing to their cytotoxicity
  inhibition of humoral and cell-mediated immunities: inhibit both humoral and cell-mediated immunities

## O=C(Nc1cc(Cl)c(O)c(Cl)c1)c1ccccc1O [Compound-1, 3',5'-Dichloro-2,4'-dihydroxybenzanilide]
[5]; [14]
  inhibition in vivo at 1 mg: > 75%
[5]; [15]
  inhibition in vivo at 1 mg: 0 to 25%
[5]; varying doses, oral or i.p., at challenge (day 4)
  DTH suppression, administered on day 4 (FIG. 1): DTH was suppressed in mice sensitized by footpad inoculation with SRBC
[5]; varying doses, oral or i.p., at sensitization (day 0)
  DTH suppression, given at sensitization (day 0) (FIG. 1): not active when given at the time of sensitization (day 0)
[6]; 1000, 250, 62.5 and 15.6 mcg./mouse i.p.
  primary antibody formation in spleen cells of treated mice (FIG. 3): apparently suppressed in proportion to increased amounts of Compound-1
[6]
  inhibition in vivo at 1 mg: > 75%
[7]; 10 mg. i.p. once daily, days 3 to 21, four of five animals
  time of paralysis after antigen injection: 13 to 16 days
[7]; [16]
  animals with paralysis to a certain degree and course of symptoms: four others showed paralysis to a certain degree at 13-16 days but the symptoms of EAE soon disappeared
  animals without sign of paralysis: one gave no sign of the development of paralysis
[7]
  recurrence of paralysis after discontinuation: no more paralytic symptoms recurred
[7]; listed as compound-1
  recurrence of paralysis after discontinuation: without recrudescence of paralysis after discontinuation of the drug
[7]; guinea pigs
  suppressive effect on EAE: potent suppressive effect on EAE
[8]
  inhibition of the response to DNCB: significant inhibition of the response to DNCB
  Skin Lesion Score, Animal No. 1: +
  Skin Lesion Score, Animal No. 2: +
  Skin Lesion Score, Animal No. 3: ++
[9]; [17]
  time of death after induction, Animal No. 1: 18 min
  time of death after induction, Animal No. 2: 21 min
  time of death after induction, Animal No. 3: 22 min
[9]; [18]
  time of death after induction, Mouse No. 1: 35 min
[9]; [19]
  time of death after induction, Animal No. 1: 22 min
  time of death after induction, Animal No. 2: 23 min
  time of death after induction, Animal No. 3: 30 min
[10]; control 1024
  Max. Dilution of Antiserum, i.p.: 64
[10]; control 1350
  Max. Dilution of Antiserum, i.p.: 315
[10]
  Max. Dilution of Antiserum, Oral: 548
[11]; in vitro
  cytotoxicity / anti-proliferative effect in vitro: not cytotoxic nor anti-proliferative in vitro
[11]; spleen cell culture in vitro
  number of nucleated cells in culture: no changes in the number of nucleated cells
  viable cell count in culture: no changes in the number of nucleated cells nor in the viable cell count
[11]; spleen cell culture in vitro, four days
  number of plaque forming cells in culture: significantly decreased
[12]
  LD50: 2400 mg/kg
rats
  symptoms or abnormality attributable to the drug: no particular symptoms or abnormality attributable to the drug dosage was noted
  weight gain: normal
Red blood cells
  suppression of heat-induced hemolysis of red blood cells: suppressed the heat-induced hemolysis of red blood cells to about the same extent as did mefenamic acid or indomethacin

## O=C(Nc1cc(Cl)cc(Cl)c1O)c1ccccc1O [Compound-2, 3',5'-Dichloro-2,2'-dihydroxybenzanilide]
[5]; [14]
  inhibition in vivo at 1 mg: > 75%
[5]; [15]
  inhibition in vivo at 1 mg: 0 to 25%
[6]
  inhibition in vivo at 1 mg: > 75%
[8]
  inhibition of the response to DNCB: significant inhibition of the response to DNCB
  Skin Lesion Score, Animal No. 1: +
  Skin Lesion Score, Animal No. 2: ++
  Skin Lesion Score, Animal No. 3: ++
[9]; [18]
  time of death after induction, Mouse No. 1: 10 min
[9]; 1 mg./mouse i.p. at 0.5 and 5 hours before challenge, control 18
  time of death after induction, Mouse No. 2: 35 min
[10]
  Max. Dilution of Antiserum, Oral: 736
[12]
  LD50: 2500 mg/kg
rats
  symptoms or abnormality attributable to the drug: no particular symptoms or abnormality attributable to the drug dosage was noted
  weight gain: normal

## Cn1cnc([N+](=O)[O-])c1Sc1ncnc2nc[nH]c12 [azathioprine]
[2]
  effect on nucleic acid and/or protein synthesis: disrupt nucleic acid and/or protein synthesis
[4]
  dose at which effective / cytotoxicity: effective in general only at near-lethal doses owing to their cytotoxicity
  inhibition of humoral and cell-mediated immunities: inhibit both humoral and cell-mediated immunities

## COc1ccc2c(c1)c(CC(=O)O)c(C)n2C(=O)c1ccc(Cl)cc1 [indomethacin]
[5]
  suppression of DTH reaction: little suppression of this DTH reaction
Red blood cells
  suppression of heat-induced hemolysis of red blood cells: about the same extent
[13]
  suppression of carrageenin-induced edema: strongly suppress carrageenin-induced edema

## Cc1cccc(Nc2ccccc2C(=O)O)c1C [mefenamic acid]
[5]
  suppression of DTH reaction: little suppression of this DTH reaction
Red blood cells
  suppression of heat-induced hemolysis of red blood cells: about the same extent
[13]
  suppression of carrageenin-induced edema: strongly suppress carrageenin-induced edema
